{
  "source": "patent US9382255B2",
  "about": "“Substituted pyrrolopyrimidinylamino-benzothiazolones as MKNK kinase inhibitors” (BAYER PHARMA AKTIENGESELLSCHAFT, priority 2012, dated 2016)",
  "note": "pIC50: −log10 of the molar value.",
  "data": [
    {"target": "T1, human full-length MKNK1 (Homo sapiens, UniProt Q9BUB5, T385D)", "T1 construct": "GST (N); purchased Carna Biosciences 02-145; host or cells: insect cells (baculovirus expression system)", "T1 sequence (Q9BUB5 1-424 isoform Q9BUB5-2 T344D)": "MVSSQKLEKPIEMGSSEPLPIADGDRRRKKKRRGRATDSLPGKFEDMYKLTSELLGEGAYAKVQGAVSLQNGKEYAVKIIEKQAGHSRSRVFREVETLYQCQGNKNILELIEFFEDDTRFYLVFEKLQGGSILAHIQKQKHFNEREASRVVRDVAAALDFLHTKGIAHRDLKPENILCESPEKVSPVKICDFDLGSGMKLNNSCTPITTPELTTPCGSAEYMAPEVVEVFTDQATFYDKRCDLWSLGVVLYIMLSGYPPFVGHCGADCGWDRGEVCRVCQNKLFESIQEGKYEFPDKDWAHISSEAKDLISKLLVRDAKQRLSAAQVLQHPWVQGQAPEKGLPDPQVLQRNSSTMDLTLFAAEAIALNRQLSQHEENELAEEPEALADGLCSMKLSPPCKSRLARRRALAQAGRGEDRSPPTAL", "assay": "MKNK1 kinase high ATP assay (TR-FRET)", "type": "biochemical", "conditions": "high ATP (2 mM final), 15 min preincubation with enzyme, GST-MKNK1 (T344D)", "protocol": "MKNK1 Kinase High ATP Assay\nMKNK1-inhibitory activity at high ATP of compounds of the present invention after their preincubation with MKNK1 was quantified employing the TR-FRET-based MKNK1 high ATP assay as described in the following paragraphs.\nA recombinant fusion protein of Glutathione-S-Transferase (GST, N-terminally) and human full-length MKNK1 (amino acids 1-424 and T344D of accession number BAA 19885.1), expressed in insect cells using baculovirus expression system and purified via glutathione sepharose affinity chromatography, was purchased from Carna Biosciences (product no 02-145) and used as enzyme. As substrate for the kinase reaction the biotinylated peptide biotin-Ahx-IKKRKLTRRKSLKG (C-terminus in amide form) was used, which can be purchased e.g. from the company Biosyntan (Berlin-Buch, Germany).\nFor the assay 50 nL of a 100 fold concentrated solution of the test compound in DMSO was pipetted into a black low volume 384 well microtiter plate (Greiner Bio-One, Frickenhausen, Germany), 2 μL of a solution of MKNK1 in aqueous assay buffer [50 mM HEPES pH 7.5, 5 mM MgCL2, 1.0 mM dithiothreitol, 0.005% (v/v) Nonidet-P40 (Sigma)] was added and the mixture was incubated for 15 min at 22° C. to allow pre-binding of the test compounds to the enzyme before the start of the kinase reaction. Then the kinase reaction was started by the addition of 3 μL of a solution of adenosine-tri-phosphate (ATP, 3.3 mM=>final conc. in the 5 μL assay volume is 2 mM) and substrate (0.1 μM=>final conc. in the 5 μL assay volume is 0.06 μM) in assay buffer and the resulting mixture was incubated for a reaction time of 30 min at 22° C. The concentration of MKNK1 was adjusted depending of the activity of the enzyme lot and was chosen appropriate to have the assay in the linear range, typical concentrations were in the range of 0.003 μg/mL. The reaction was stopped by the addition of 5 μL of a solution of TR-FRET detection reagents (5 nM streptavidine-XL665 [Cisbio Bioassays, Codolet, France] and 1 nM anti-ribosomal protein S6 (pSer236)-antibody from Invitrogen [#44921G] and 1 nM LANCE EU-W1024 Labeled ProteinG [Perkin-Elmer, product no. AD0071]) in an aqueous EDTA-solution (100 mM EDTA, 0.1% (w/v) bovine serum albumin in 50 mM HEPES pH 7.5).\nThe resulting mixture was incubated for 1 h at 22° C. to allow the formation of complex between the phosphorylated biotinylated peptide and the detection reagents. Subsequently the amount of phosphorylated substrate was evaluated by measurement of the resonance energy transfer from the Eu-chelate to the streptavidine-XL. Therefore, the fluorescence emissions at 620 nm and 665 nm after excitation at 350 nm were measured in a TR-FRET reader, e.g. a Rubystar (BMG Labtechnologies, Offenburg, Germany) or a Viewlux (Perkin-Elmer). The ratio of the emissions at 665 nm and at […] was taken as the measure for the amount of phosphorylated substrate. The data were normalised (enzyme reaction without inhibitor=0% inhibition, all other assay components but no enzyme=100% inhibition).", "values": [
      {"smiles": "CCc1[nH]c2ncnc(Nc3ccc4[nH]c(=O)sc4c3)c2c1C", "note": "[Example 1, 6-[(6-Ethyl-5-methyl-7H-pyrrolo[2,3-d]pyrimidin-4-yl)amino]-1,3-benzothiazol-2(3H)-one]", "pIC50": 7.57},
      {"smiles": "O=c1[nH]c2ccc(Nc3ncnc4[nH]cc(F)c34)cc2s1", "note": "[Example 2, 6-[(5-Fluoro-7H-pyrrolo[2,3-d]pyrimidin-4-yl)amino]-1,3-benzothiazol-2(3H)-one]", "pIC50": 7.57},
      {"smiles": "O=C(O)c1c[nH]c2ncnc(Nc3ccc4[nH]c(=O)sc4c3)c12", "note": "[Example 3, 4-[(2-Oxo-2,3-dihydro-1,3-benzothiazol-6-yl)amino]-7H-pyrrolo[2,3-d]pyrimidine-5-carboxylic acid]", "pIC50": 8.15},
      {"smiles": "CN1CCN(C(=O)c2c[nH]c3ncnc(Nc4ccc5[nH]c(=O)sc5c4)c23)CC1", "note": "[Example 4, 6-({5-[(4-Methylpiperazin-1-yl)carbonyl]-7H-pyrrolo[2,3-d]pyrimidin-4-yl}amino)-1,3-benzothiazol-2(3H)-one]", "pIC50": 7.72},
      {"smiles": "CC(C)NC(=O)c1c[nH]c2ncnc(Nc3ccc4[nH]c(=O)sc4c3)c12", "note": "[Example 5, N-Isopropyl-4-[(2-oxo-2,3-dihydro-1,3-benzothiazol-6-yl)amino]-7H-pyrrolo[2,3-d]pyrimidine-5-carboxamide]", "pIC50": 8.40},
      {"smiles": "O=c1[nH]c2ccc(Nc3ncnc4[nH]ccc34)cc2s1", "note": "[Example 6, 6-(7H-Pyrrolo[2,3-d]pyrimidin-4-ylamino)-1,3-benzothiazol-2(3H)-one]", "pIC50": 7.72},
      {"smiles": "O=c1[nH]c2ccc(Nc3ncnc4[nH]ncc34)cc2s1", "note": "[Example 7, 6-(1H-pyrazolo[3,4-d]pyrimidin-4-ylamino)-1,3-benzothiazol-2(3H)-one]", "pIC50": 7.36},
      {"smiles": "O=c1[nH]c2ccc(Nc3ncnc4[nH]c(Br)cc34)cc2s1", "note": "[Example 8, 6-[(6-Bromo-7H-pyrrolo[2,3-d]pyrimidin-4-yl)amino]-1,3-benzothiazol-2(3H)-one]", "pIC50": 8.30},
      {"smiles": "O=c1[nH]c2ccc(Nc3ncnc4[nH]cnc34)cc2s1", "note": "[Example 9, 6-(9H-Purin-6-ylamino)-1,3-benzothiazol-2(3H)-one]", "pIC50": 7.96},
      {"smiles": "CCOC(=O)c1cc2c(Nc3ccc4[nH]c(=O)sc4c3)ncnc2[nH]1", "note": "[Example 10, Ethyl 4-[(2-oxo-2,3-dihydro-1,3-benzothiazol-6-yl)amino]-7H-pyrrolo[2,3-d]pyrimidine-6-carboxylate]", "pIC50": 8.70},
      {"smiles": "O=c1[nH]c2ccc(Nc3ncnc4[nH]c(C#CCO)cc34)cc2s1", "note": "[Example 11, 6-{[6-(3-Hydroxyprop-1-yn-1-yl)-7H-pyrrolo[2,3-d]pyrimidin-4-yl]amino}-1,3-benzothiazol-2(3H)-one]", "pIC50": 8.22},
      {"smiles": "N#Cc1c[nH]c2ncnc(Nc3ccc4[nH]c(=O)sc4c3)c12", "note": "[Example 12, 4-[(2-Oxo-2,3-dihydro-1,3-benzothiazol-6-yl)amino]-7H-pyrrolo[2,3-d]pyrimidine-5-carbonitrile]", "pIC50": 7.89},
      {"smiles": "CCc1[nH]c2ncnc(Nc3cc4sc(=O)[nH]c4cc3OC)c2c1C", "note": "[Example 13, 6-[(6-Ethyl-5-methyl-7H-pyrrolo[2,3-d]pyrimidin-4-yl)amino]-5-methoxy-1,3-benzothiazol-2(3H)-one]", "pIC50": 8.22},
      {"smiles": "Cc1cc2c(Nc3ccc4[nH]c(=O)sc4c3)ncnc2[nH]1", "note": "[Example 14, 6-[(6-Methyl-7H-pyrrolo[2,3-d]pyrimidin-4-yl)amino]-1,3-benzothiazol-2(3H)-one]", "pIC50": 7.60},
      {"smiles": "Cc1c[nH]c2ncnc(Nc3ccc4[nH]c(=O)sc4c3)c12", "note": "[Example 15, 6-[(5-Methyl-7H-pyrrolo[2,3-d]pyrimidin-4-yl)amino]-1,3-benzothiazol-2(3H)-one]", "pIC50": 8.05},
      {"smiles": "O=c1[nH]c2ccc(Nc3ncnc4[nH]c(Cl)cc34)cc2s1", "note": "[Example 16, 6-[(6-Chloro-7H-pyrrolo[2,3-d]pyrimidin-4-yl)amino]-1,3-benzothiazol-2(3H)-one]", "pIC50": 7.96},
      {"smiles": "O=c1[nH]c2ccc(Nc3ncnc4[nH]c(CCCO)cc34)cc2s1", "note": "[Example 17, 6-{[6-(3-Hydroxypropyl)-7H-pyrrolo[2,3-d]pyrimidin-4-yl]amino}-1,3-benzothiazol-2(3H)-one]", "pIC50": 8.05},
      {"smiles": "COc1cc2[nH]c(=O)sc2cc1Nc1ncnc2[nH]c(Br)cc12", "note": "[Example 18, 6-[(6-Bromo-7H-pyrrolo[2,3-d]pyrimidin-4-yl)amino]-5-methoxy-1,3-benzothiazol-2(3H)-one]", "pIC50": 7.74},
      {"smiles": "COc1cc2[nH]c(=O)sc2cc1Nc1ncnc2[nH]ccc12", "note": "[Example 19, 5-Methoxy-6-(7H-pyrrolo[2,3-d]pyrimidin-4-ylamino)-1,3-benzothiazol-2(3H)-one]", "pIC50": 7.96},
      {"smiles": "CN(C)C(=O)c1c[nH]c2ncnc(Nc3ccc4[nH]c(=O)sc4c3)c12", "note": "[Example 20, N,N-dimethyl-4-[(2-oxo-2,3-dihydro-1,3-benzothiazol-6-yl)amino]-7H-pyrrolo[2,3-d]pyrimidine-5-carboxamide]", "pIC50": 7.82},
      {"smiles": "CC(C)Cc1[nH]c2ncnc(Nc3ccc4[nH]c(=O)sc4c3)c2c1C(C)C", "note": "[Example 21, 6-[(6-Isobutyl-5-isopropyl-7H-pyrrolo[2,3-d]pyrimidin-4-yl)amino]-1,3-benzothiazol-2(3H)-one]", "pIC50": 7.49},
      {"smiles": "CCCc1[nH]c2ncnc(Nc3ccc4[nH]c(=O)sc4c3)c2c1CC", "note": "[Example 22, 6-[(5-Ethyl-6-propyl-7H-pyrrolo[2,3-d]pyrimidin-4-yl)amino]-1,3-benzothiazol-2(3H)-one]", "pIC50": 7.80},
      {"smiles": "O=c1[nH]c2ccc(Nc3ncnc4[nH]c(S(=O)(=O)c5ccc(Cl)cc5)cc34)cc2s1", "note": "[Example 23, 6-({6-[(4-Chlorophenyl)sulfonyl]-7H-pyrrolo[2,3-d]pyrimidin-4-yl}amino)-1,3-benzothiazol-2(3H)-one]", "pIC50": 7.92},
      {"smiles": "Cc1ccc(S(=O)(=O)c2cc3c(Nc4ccc5[nH]c(=O)sc5c4)ncnc3[nH]2)cc1", "note": "[Example 24, 6-({6-[(4-Methylphenyl)sulfonyl]-7H-pyrrolo[2,3-d]pyrimidin-4-yl}amino)-1,3-benzothiazol-2(3H)-one]", "pIC50": 8.30},
      {"smiles": "CCOC(=O)c1cc2c(Nc3cc4sc(=O)[nH]c4cc3OC)ncnc2[nH]1", "note": "[Example 25, Ethyl 4-[(5-methoxy-2-oxo-2,3-dihydro-1,3-benzothiazol-6-yl)amino]-7H-pyrrolo[2,3-d]pyrimidine-6-carboxylate]", "pIC50": 8.40},
      {"smiles": "COc1cc2[nH]c(=O)sc2cc1Nc1ncnc2[nH]c(C(=O)O)cc12", "note": "[Example 26, 4-[(5-Methoxy-2-oxo-2,3-dihydro-1,3-benzothiazol-6-yl)amino]-7H-pyrrolo[2,3-d]pyrimidine-6-carboxylic acid]", "pIC50": 7.68},
      {"smiles": "O=c1[nH]c2ccc(Nc3ncnc4[nH]cc(Br)c34)cc2s1", "note": "[Example 27, 6-[(5-Bromo-7H-pyrrolo[2,3-d]pyrimidin-4-yl)amino]-1,3-benzothiazol-2(3H)-one]", "pIC50": 8.22},
      {"smiles": "COc1cc2[nH]c(=O)sc2cc1Nc1ncnc2[nH]cc(F)c12", "note": "[Example 28, 6-[(5-Fluoro-7H-pyrrolo[2,3-d]pyrimidin-4-yl)amino]-5-methoxy-1,3-benzothiazol-2(3H)-one]", "pIC50": 9.00},
      {"smiles": "CCCc1[nH]c2ncnc(Nc3cc4sc(=O)[nH]c4cc3OC)c2c1CC", "note": "[Example 29, 6-[(5-Ethyl-6-propyl-7H-pyrrolo[2,3-d]pyrimidin-4-yl)amino]-5-methoxy-1,3-benzothiazol-2(3H)-one]", "pIC50": 8.30},
      {"smiles": "O=C(O)c1cc2c(Nc3ccc4[nH]c(=O)sc4c3)ncnc2[nH]1", "note": "[Example 30, 4-[(2-Oxo-2,3-dihydro-1,3-benzothiazol-6-yl)amino]-7H-pyrrolo[2,3-d]pyrimidine-6-carboxylic acid]", "pIC50": 7.44},
      {"smiles": "CN(C)C1CCN(C(=O)c2cc3c(Nc4ccc5[nH]c(=O)sc5c4)ncnc3[nH]2)CC1", "note": "[Example 31, 6-[(6-{[4-(Dimethylamino)piperidin-1-yl]carbonyl}-7H-pyrrolo[2,3-d]pyrimidin-4-yl)amino]-1,3-benzothiazol-2(3H)-one]", "pIC50": 7.40},
      {"smiles": "O=C(c1cc2c(Nc3ccc4[nH]c(=O)sc4c3)ncnc2[nH]1)N1CCOCC1", "note": "[Example 32, 6-{[6-(Morpholin-4-ylcarbonyl)-7H-pyrrolo[2,3-d]pyrimidin-4-yl]amino}-1,3-benzothiazol-2(3H)-one]", "pIC50": 7.70}
    ]}
  ]
}
